Laboratory results from the NIST ThermoML archive (doi:10.1021/je034093m).
Several values for one entry are separate records, joined by “and”; a condition that tells them apart may be missing. Equal entries are not always repeated. ± gives the expanded uncertainty stated by the source.

Details: Capillary rise

CCC [propane]
surface tension liquid-gas (253.08 K): 12.98 ± 0.16 mN/m
surface tension liquid-gas (254.8 K): 12.7 ± 0.16 mN/m and 12.69 ± 0.16 mN/m
surface tension liquid-gas (256.89 K): 12.38 ± 0.16 mN/m
surface tension liquid-gas (258.68 K): 12.21 ± 0.16 mN/m and 12.2 ± 0.16 mN/m
surface tension liquid-gas (260.71 K): 11.94 ± 0.16 mN/m and 11.97 ± 0.16 mN/m
surface tension liquid-gas (262.7 K): 11.56 ± 0.16 mN/m and 11.58 ± 0.16 mN/m
surface tension liquid-gas (265.09 K): 11.31 ± 0.16 mN/m and 11.32 ± 0.16 mN/m
surface tension liquid-gas (267.09 K): 11.06 ± 0.16 mN/m and 11.05 ± 0.16 mN/m
surface tension liquid-gas (268.88 K): 10.81 ± 0.16 mN/m
surface tension liquid-gas (270.72 K): 10.52 ± 0.16 mN/m and 10.53 ± 0.16 mN/m
surface tension liquid-gas (273.2 K): 10.17 ± 0.16 mN/m
surface tension liquid-gas (275.38 K): 9.97 ± 0.16 mN/m
surface tension liquid-gas (277.43 K): 9.71 ± 0.16 mN/m
surface tension liquid-gas (279.39 K): 9.4 ± 0.16 mN/m
surface tension liquid-gas (281.48 K): 9.14 ± 0.16 mN/m and 9.15 ± 0.16 mN/m
surface tension liquid-gas (289.27 K): 8.14 ± 0.16 mN/m and 8.15 ± 0.16 mN/m
surface tension liquid-gas (293.85 K): 7.49 ± 0.16 mN/m
surface tension liquid-gas (295.73 K): 7.23 ± 0.16 mN/m
surface tension liquid-gas (297.4 K): 7.04 ± 0.16 mN/m
surface tension liquid-gas (299.41 K): 6.85 ± 0.16 mN/m and 6.87 ± 0.16 mN/m
surface tension liquid-gas (301.45 K): 6.62 ± 0.16 mN/m
surface tension liquid-gas (303.54 K): 6.33 ± 0.16 mN/m and 6.34 ± 0.16 mN/m
surface tension liquid-gas (305.17 K): 6.21 ± 0.16 mN/m and 6.22 ± 0.16 mN/m
surface tension liquid-gas (308.01 K): 5.86 ± 0.16 mN/m
surface tension liquid-gas (310.73 K): 5.55 ± 0.16 mN/m
surface tension liquid-gas (314.39 K): 5.06 ± 0.16 mN/m
surface tension liquid-gas (315.71 K): 4.85 ± 0.16 mN/m and 4.84 ± 0.16 mN/m
surface tension liquid-gas (317.64 K): 4.62 ± 0.16 mN/m and 4.63 ± 0.16 mN/m
surface tension liquid-gas (319.43 K): 4.42 ± 0.16 mN/m
surface tension liquid-gas (321.41 K): 4.25 ± 0.16 mN/m and 4.26 ± 0.16 mN/m
surface tension liquid-gas (323.34 K): 4.01 ± 0.16 mN/m and 4.02 ± 0.16 mN/m
surface tension liquid-gas (325.32 K): 3.8 ± 0.16 mN/m and 3.81 ± 0.16 mN/m
surface tension liquid-gas (327.4 K): 3.6 ± 0.16 mN/m and 3.62 ± 0.16 mN/m
surface tension liquid-gas (329.79 K): 3.32 ± 0.16 mN/m and 3.31 ± 0.16 mN/m
surface tension liquid-gas (331.79 K): 3.12 ± 0.16 mN/m and 3.13 ± 0.16 mN/m
surface tension liquid-gas (333.3 K): 2.94 ± 0.15 mN/m and 2.95 ± 0.15 mN/m

CC(C)C [2-methylpropane]
surface tension liquid-gas (255.02 K): 14.85 ± 0.16 mN/m
surface tension liquid-gas (256.94 K): 14.69 ± 0.16 mN/m
surface tension liquid-gas (258.83 K): 14.36 ± 0.16 mN/m and 14.37 ± 0.16 mN/m
surface tension liquid-gas (261.09 K): 14.17 ± 0.16 mN/m
surface tension liquid-gas (262.95 K): 14.02 ± 0.16 mN/m and 14.03 ± 0.16 mN/m
surface tension liquid-gas (264.86 K): 13.7 ± 0.16 mN/m and 13.72 ± 0.16 mN/m
surface tension liquid-gas (267.09 K): 13.46 ± 0.16 mN/m and 13.44 ± 0.16 mN/m
surface tension liquid-gas (268.86 K): 13.16 ± 0.16 mN/m
surface tension liquid-gas (270.9 K): 12.95 ± 0.16 mN/m and 12.97 ± 0.16 mN/m
surface tension liquid-gas (273.38 K): 12.68 ± 0.16 mN/m
surface tension liquid-gas (275.39 K): 12.57 ± 0.16 mN/m and 12.6 ± 0.16 mN/m
surface tension liquid-gas (277.16 K): 12.29 ± 0.16 mN/m
surface tension liquid-gas (279.34 K): 12.06 ± 0.16 mN/m
surface tension liquid-gas (281.3 K): 11.77 ± 0.16 mN/m and 11.75 ± 0.16 mN/m
surface tension liquid-gas (283.29 K): 11.62 ± 0.16 mN/m
surface tension liquid-gas (285.43 K): 11.28 ± 0.16 mN/m
surface tension liquid-gas (287.5 K): 11.14 ± 0.16 mN/m and 11.13 ± 0.16 mN/m
surface tension liquid-gas (289.31 K): 10.86 ± 0.16 mN/m
surface tension liquid-gas (291.65 K): 10.74 ± 0.16 mN/m and 10.72 ± 0.16 mN/m
surface tension liquid-gas (293.66 K): 10.5 ± 0.16 mN/m
surface tension liquid-gas (295.75 K): 10.28 ± 0.16 mN/m
surface tension liquid-gas (297.83 K): 10.01 ± 0.16 mN/m and 10.05 ± 0.16 mN/m
surface tension liquid-gas (299.48 K): 9.84 ± 0.16 mN/m
surface tension liquid-gas (301.43 K): 9.57 ± 0.16 mN/m and 9.6 ± 0.16 mN/m
surface tension liquid-gas (303.91 K): 9.37 ± 0.16 mN/m and 9.38 ± 0.16 mN/m
surface tension liquid-gas (305.75 K): 9.14 ± 0.16 mN/m
surface tension liquid-gas (307.41 K): 8.98 ± 0.16 mN/m
surface tension liquid-gas (309.49 K): 8.75 ± 0.16 mN/m and 8.77 ± 0.16 mN/m
surface tension liquid-gas (311.81 K): 8.52 ± 0.16 mN/m and 8.51 ± 0.16 mN/m
surface tension liquid-gas (313.49 K): 8.29 ± 0.16 mN/m and 8.31 ± 0.16 mN/m
surface tension liquid-gas (315.82 K): 8.05 ± 0.16 mN/m and 8.09 ± 0.16 mN/m
surface tension liquid-gas (317.75 K): 7.9 ± 0.16 mN/m and 7.91 ± 0.16 mN/m
surface tension liquid-gas (319.32 K): 7.69 ± 0.16 mN/m and 7.68 ± 0.16 mN/m
surface tension liquid-gas (321.96 K): 7.45 ± 0.16 mN/m and 7.46 ± 0.16 mN/m
surface tension liquid-gas (323.71 K): 7.25 ± 0.16 mN/m and 7.22 ± 0.16 mN/m
surface tension liquid-gas (325.37 K): 7.02 ± 0.16 mN/m and 7.04 ± 0.16 mN/m
surface tension liquid-gas (327.8 K): 6.79 ± 0.16 mN/m and 6.81 ± 0.16 mN/m
surface tension liquid-gas (329.49 K): 6.71 ± 0.16 mN/m
surface tension liquid-gas (331.68 K): 6.42 ± 0.16 mN/m
surface tension liquid-gas (333.28 K): 6.29 ± 0.16 mN/m
